{
  "source": "patent US20100087466A1",
  "about": "“NOVEL SMALL MOLECULE DNAK INHIBITORS” (priority 2008, published 2010)",
  "key": {"[1]": {"system": "H. influenzae (Strain 110)", "experiment": "H. influenzae Inhibition Assay (broth microdilution MIC), Strain 110", "format": "cell-based", "conditions": "for MIC: Haemophilus influenzae", "method": "(§1) An in vitro assay may be conducted by determining the minimum inhibitory concentration (MIC) of the small molecules to Gram negative bacteria, such as H. influenza. H. influenzae MICs are determined using CLSI recommended broth microdilution methodology (M7-A7). Test agent powders are dissolved in DMSO, serial dilutions are also made in DMSO and 1:100 dilutions of each are then prepared in Haemophilus Test media (HTM). 100 μL of each final dilution are transferred to appropriate wells of a 96 well microtiter plate. The test organism is suspended in saline or Mueller Hinton broth to an organism density equivalent to a 0.5 McFarland Standard. 300 μL of the H. influenzae suspension is transferred to 11 mLs of HTM and 10 μL of this suspension is transferred to each well of the microtiter plate. […] Colony counts are determined for each inoculum and expected range of final organism concentration is 3-7×10^5 CFU/mL. One of the recommended H. influenzae quality control strains (ATCC 49247 or 49766) is also tested on each testing day.\nas §1, with “H.” for “An in vitro assay may be conducted by determining the minimum inhibitory concentration (MIC) of the small molecules to Gram negative bacteria, such as H. influenza. H.”\n(§2) Pyrrhocoricin was used as a control. MIC is defined as the lowest concentration of an anti-bacterial agent that will inhibit the visible growth of a microorganism after overnight incubation."}, "[2]": {"system": "H. influenzae (Strain 109)", "experiment": "H. influenzae Inhibition Assay (broth microdilution MIC), Strain 109", "format": "cell-based", "conditions": "for MIC: Haemophilus influenzae", "method": "as §1\nas §1, with “H.” for “An in vitro assay may be conducted by determining the minimum inhibitory concentration (MIC) of the small molecules to Gram negative bacteria, such as H. influenza. H.”\nas §2"}, "[3]": {"target": "DnaK (Escherichia coli, UniProt P0A6Y8)", "sequence (P0A6Y8 2-638)": "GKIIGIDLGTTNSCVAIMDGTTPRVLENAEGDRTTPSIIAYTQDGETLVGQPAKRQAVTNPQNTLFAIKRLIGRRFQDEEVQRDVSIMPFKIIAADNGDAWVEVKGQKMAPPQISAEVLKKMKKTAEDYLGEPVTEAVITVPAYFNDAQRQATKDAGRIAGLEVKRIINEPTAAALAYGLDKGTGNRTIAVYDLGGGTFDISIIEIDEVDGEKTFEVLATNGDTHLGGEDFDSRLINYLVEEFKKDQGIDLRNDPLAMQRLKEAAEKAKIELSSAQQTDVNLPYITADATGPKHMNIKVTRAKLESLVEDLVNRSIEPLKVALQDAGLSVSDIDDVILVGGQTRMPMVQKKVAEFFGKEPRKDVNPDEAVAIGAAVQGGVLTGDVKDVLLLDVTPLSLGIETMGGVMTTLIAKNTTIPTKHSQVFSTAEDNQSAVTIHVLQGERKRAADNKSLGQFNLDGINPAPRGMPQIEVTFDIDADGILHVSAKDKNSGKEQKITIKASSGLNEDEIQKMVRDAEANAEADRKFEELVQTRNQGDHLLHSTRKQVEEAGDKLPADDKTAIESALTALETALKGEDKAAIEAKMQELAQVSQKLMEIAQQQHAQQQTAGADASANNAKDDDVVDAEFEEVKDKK", "experiment": "DnaK Inhibition Assay (DnaK induced refolding of denatured firefly luciferase)", "format": "biochemical, E. coli", "conditions": "DnaK 200 nM, DnaJ 100 nM, GrpE 400 nM", "method": "Inhibition of the bacterial DnaK chaperone system may be evaluated by inhibition of the DnaK induced refolding of denatured firefly luciferase. More specifically, firefly luciferase is denatured by treatment with 8N guanidium hydrochloride at room temperature for 30 mins and then 5° C. for 1 h. After dilution into cold MOPS buffer augmented with ATP (2.5 mM) and DTT (12.5 mM) and standing for a further hour, the denatured luciferase is refolded by addition to a mixture of chaperone proteins in MOPS buffer, resulting in a reaction mixture containing denatured luciferase (24 nM), DnaK (200 nM), DnaJ (100 nM) and GrpE (400 nM). The extent of refolding is determined by addition of a luciferase substrate and measurement of the emitted chemoluminescence. In this format the substrate is the commercially available luciferase “Steady-Glo” reagent from Promega, Inc. Inhibition of DnaK induced refolding is determined by premixing the chaperone proteins with the test agent at concentrations of test agent ranging from 1-100 μg/mL. The extent of refolding is compared to that with no test reagent, and the IC50 is estimated by fitting the data to a standard sigmoidal dose-response curve.\nInhibition of the bacterial DnaK chaperone system was evaluated by inhibition of the DnaK induced refolding of denatured firefly luciferase. Firefly luciferase was denatured by treatment with 8N guanidium hydrochloride at room temperature for 30 mins and then 5° C. for 1 h. After dilution into cold MOPS buffer augmented with ATP (2.5 mM) and DTT (12.5 mM) and standing for a further hour, the denatured luciferase was refolded by addition to a mixture of chaperone proteins in MOPS buffer, resulting in a reaction mixture containing denatured luciferase (24 nM), DnaK (200 nM), DnaJ (100 nM) and GrpE (400 nM). The extent of refolding was determined by addition of a luciferase substrate and measurement of the emitted chemoluminescence. In this format the substrate is the commercially available luciferase “Steady-Glo” reagent from Promega, Inc. Inhibition of DnaK induced refolding was determined by premixing the chaperone proteins with the test agent at concentrations of test agent ranging from 1-100 μg/mL. The extent of refolding was compared to that with no test reagent, and the IC50 was estimated by fitting the data to a standard sigmoidal dose-response curve.\nIC50 is defined as the concentration in μM at which 50% inhibition of DnaK induced refolding of denatured firefly luciferase occurs."}, "[4]": {"system": "E. coli (ATCC 25922)", "experiment": "Antibacterial activity against E. coli (MIC)", "format": "cell-based", "conditions": "for MIC: Escherichia coli, ATCC25922"}, "[5]": {"conditions": "Strain 110, HTM, 35° C., 20-24 hours, read-out: H. influenzae (Strain 110) MIC"}, "[6]": {"conditions": "Strain 109, HTM, 35° C., 20-24 hours, read-out: H. influenzae (Strain 109) MIC"}, "[7]": {"conditions": "read-out: DnaK IC50(μg/ml) (converted)"}},
  "note": "Structures can show the parent of a compound that is named as a salt. Where two headings read alike, the source gives them in different places. Non-standard residues stand in square brackets, D forms with d. Residues, ends and D or L forms follow the SMILES beside them. *: point of attachment. Phe(4-F) = N[C@@H](Cc1ccc(F)cc1)C(=O)O; Octanoyl = CCCCCCCC(=O)*; Bn = c1ccc(C*)cc1",
  "data": [
    {"compound": "COC(=O)[C@@H]1CCCN1C(=O)[C@H](CC(C)C)NC(=O)[C@H](Cc1ccc(OCc2ccccc2)cc1)NC(C)=O", "note": "[Structure 2, Ac-Tyr(Bzl)-Leu-Pro-OMe] (Ac-Tyr(Bn)-Leu-Pro-OMe)", "values": [
      {"measurement": "MIC", "setting": "[1]; [5]", "value": "> 128", "unit": "µg/mL"},
      {"measurement": "MIC", "setting": "[2]; [6]", "value": 32, "unit": "µg/mL"},
      {"measurement": "inhibition of H. influenzae strain 109 compared with the control pyrrhocoricin", "setting": "[2]", "value": "lower concentration than the control"},
      {"measurement": "IC50", "setting": "[3]; read-out: DnaK IC50", "value": 63, "unit": "µM"},
      {"measurement": "IC50", "setting": "[3]; [7]", "value": 219, "unit": "µM"}
    ]},
    {"compound": "CC(=O)N[C@@H](Cc1ccc(OCc2ccccc2)cc1)C(=O)N[C@@H](CC(C)C)C(=O)N1CCC[C@H]1C(=O)O", "note": "[Structure 3, Ac-Tyr(Bzl)-Leu-Pro-OH] (Ac-Tyr(Bn)-Leu-Pro-OH)", "values": [
      {"measurement": "MIC", "setting": "[1]; read-out: H. influenzae (Strain 110) MIC (μg/ml)", "value": 64, "unit": "µg/mL"},
      {"measurement": "inhibition of H. influenzae strain 110 compared with the control pyrrhocoricin", "setting": "[1]; strain 110", "value": "surpasses that of pyrrhocoricin"},
      {"measurement": "MIC", "setting": "[2]; read-out: H. influenzae (Strain 109) MIC (μg/ml)", "value": 32, "unit": "µg/mL"},
      {"measurement": "inhibition of H. influenzae strain 109 compared with the control pyrrhocoricin", "setting": "[2]", "value": "surpasses that of pyrrhocoricin"},
      {"measurement": "IC50", "setting": "[3]; read-out: DnaK IC50", "value": 110, "unit": "µM"},
      {"measurement": "IC50", "setting": "[3]; [7]", "value": 399, "unit": "µM"}
    ]},
    {"compound": "CCCCCCCC(=O)N[C@H](Cc1ccc(OCc2ccccc2)cc1)C(=O)N[C@@H](CC(C)C)C(=O)N1CCC[C@H]1C(=O)N[C@H](CCCNC(=N)N)C(=O)OC", "note": "[Structure 25, Octanoyl-(D)-Tyr(Bzl)-Leu-Pro-Arg-OMe trifluoroacetate] (Octanoyl-[dY](Bn)LP[dR]-OMe)", "values": [
      {"measurement": "IC50", "setting": "[3]; read-out: DnaK IC50", "value": 20, "unit": "µM"},
      {"measurement": "IC50", "setting": "[3]; [7]", "value": 23.1, "unit": "µM"},
      {"measurement": "MIC", "setting": "[4]", "value": 128, "unit": "µg/mL"}
    ]},
    {"compound": "CC(=O)N[C@@H](Cc1ccc(F)cc1)C(=O)N[C@@H](CC(C)C)C(=O)N1CCC[C@H]1C(=O)O", "note": "[Structure 11] (Ac-[Phe(4-F)]-Leu-Pro-OH)", "values": [
      {"measurement": "MIC", "setting": "[1]; [5]", "value": "> 128", "unit": "µg/mL"},
      {"measurement": "MIC", "setting": "[2]; [6]", "value": 4, "unit": "µg/mL"},
      {"measurement": "inhibition of H. influenzae strain 109 compared with the control pyrrhocoricin", "setting": "[2]", "value": "lower concentration than the control"},
      {"measurement": "IC50", "setting": "[3]; read-out: DnaK IC50", "value": 69, "unit": "µM"},
      {"measurement": "IC50", "setting": "[3]; [7]", "value": 363, "unit": "µM"}
    ]},
    {"compound": "CCCCCCCC(=O)N[C@@H](Cc1ccc(OCc2ccccc2)cc1)C(=O)N[C@@H](CC(C)C)C(=O)N1CCC[C@H]1C(=O)N1CC[C@H](NC(=N)N)C1", "note": "[Structure 29, Octanoyl-Tyr(Bzl)-Leu-Pro-(S)-(3-guanidino)pyrrolidinyl amide]", "values": [
      {"measurement": "IC50", "setting": "[3]; read-out: DnaK IC50", "value": 10, "unit": "µM"},
      {"measurement": "IC50", "setting": "[3]; [7]", "value": 11.1, "unit": "µM"},
      {"measurement": "MIC", "setting": "[4]", "value": 32, "unit": "µg/mL"}
    ]},
    {"compound": "COC(=O)[C@@H]1CCCN1C(=O)[C@H](CC(C)C)NC(=O)[C@H](Cc1ccc(F)cc1)NC(C)=O", "note": "[Structure 10, Ac(4-F)Phe-Leu-Pro-OMe] (Ac-[Phe(4-F)]-Leu-Pro-OMe)", "values": [
      {"measurement": "MIC", "setting": "[1]; [5]", "value": "> 128", "unit": "µg/mL"},
      {"measurement": "MIC", "setting": "[2]; [6]", "value": 32, "unit": "µg/mL"},
      {"measurement": "inhibition of H. influenzae strain 109 compared with the control pyrrhocoricin", "setting": "[2]", "value": "lower concentration than the control"},
      {"measurement": "IC50", "setting": "[3]; read-out: DnaK IC50", "value": 26, "unit": "µM"},
      {"measurement": "IC50", "setting": "[3]; [7]", "value": 127, "unit": "µM"}
    ]},
    {"compound": "3-(Octylamido)-nicotinoyl-Tyr(Bzl)-Leu-Pro-Arg-OMe trifluoroacetate [Structure 31]", "values": [
      {"measurement": "DnaK IC50(μg/ml)", "setting": "[3]", "value": 10, "unit": "µg/mL"},
      {"measurement": "IC50", "setting": "[3]; read-out: DnaK IC50", "value": 10, "unit": "µM"},
      {"measurement": "E. coli (ATCC 25922) MIC", "setting": "[4]; ATCC 25922", "value": 32, "unit": "µg/mL"}
    ]},
    {"compound": "CCC(C)[C@H](NC(C)=O)C(=O)N[C@@H](CCCCNC(=O)OCc1ccccc1)C(=O)N1CCC[C@H]1C(=O)O", "note": "(some centres unmarked) [Structure 22, Ac-Ile-Lys(Cbz)-Pro-OH]", "values": [
      {"measurement": "MIC", "setting": "[1]; [5]", "value": "> 128", "unit": "µg/mL"},
      {"measurement": "MIC", "setting": "[2]; [6]", "value": 2, "unit": "µg/mL"},
      {"measurement": "inhibition of H. influenzae strain 109 compared with the control pyrrhocoricin", "setting": "[2]", "value": "lower concentration than the control"},
      {"measurement": "IC50", "setting": "[3]; read-out: DnaK IC50", "value": 14, "unit": "µM"},
      {"measurement": "IC50", "setting": "[3]; [7]", "value": 50.7, "unit": "µM"}
    ]}
  ]
}
